Reference: patent publication US20120010179A1, “Methods of using a thiazole derivative” (priority 2006, published 2012)

System: patients with COPD
Experiment: Pulmonary function tests (spirometry FEV1, FVC), tetomilast with inhaled albuterol, crossover study (Example 1)
Assay type: in vivo, human
Settings: for Estimated Treatment Effect, change from baseline in FEV1 (tetomilast versus placebo) / Estimated Treatment Effect, change from baseline in FVC (tetomilast versus placebo) / LS Mean change from baseline in FEV1 (repeated measures ANOVA) / LS Mean change from baseline in FVC (repeated measures ANOVA) / Mean (SD) change from baseline in FEV1 / Mean (SD) change from baseline in FVC: Baseline (Day 0); for Estimated Treatment Effect, change from baseline in FEV1 (tetomilast versus placebo) / Estimated Treatment Effect, change from baseline in FVC (tetomilast versus placebo): both with inhaled albuterol; for LS Mean change from baseline in FEV1 (repeated measures ANOVA) / LS Mean change from baseline in FVC (repeated measures ANOVA) / Mean (SD) change from baseline in FEV1 / Mean (SD) change from baseline in FVC: tetomilast 50 mg QD + inhaled albuterol
Experimental: Pulmonary function tests were conducted throughout the study to monitor the subjects' respiratory status. Flow volume curves were collected via spirometry. Combivent® (Boehringer Ingleheim Pharmaceuticals, Inc., Ridgefield Conn.), which was used for short-acting rescues as needed throughout the studies described below, was withheld for 6 hours prior to any spirometric testing. Spirometry testing was performed at screening, baseline (Day 0), and at specific times during the treatment period. Each subject could have up to 5 spirometric readings at any study time point. Spirometric readings were performed using equipment from the central provider, Quantum Research, Inc. (Louisville, Colo.). All spirometry readings were recorded and sent to Quantum Research, Inc. for analysis
For the spirometric readings, the best effort was reported as follows. The highest acceptable forced expiratory volume in one second (FEV1) value was selected as the “best” of the given test session. If two or more FEV1 values were tied as highest, the sum of FEV1 and forced vital capacity (FVC) for those efforts was used. If both conditions were equal between the two efforts, the values reported were taken from the effort that occurred first, chronologically, based on date and time of the effort.
This study was a multicenter, randomized, double-blind, placebo-controlled, crossover, multiple dose, outpatient study in 27 patients with COPD. All subjects underwent a 28-day washout from inhaled corticosteroids and/or long-acting bronchodilators and/or continuous oxygen therapy (≧16 hours per day) and a 7-day washout from oral beta2-agonists and/or oral theophylline salts prior to baseline. Randomized subjects received an 8-day administration of oral placebo or tetomilast 50 mg oral dose (2×25 mg tablets) once daily (QD). On study Day 8, four consecutive doses of inhaled albuterol (90 μg albuterol base per puff) were given via a metered dose inhaler (MDI) and holding chamber (Ventolin®, GlaxoSmithKline, Research Triangle Park, N.C.), one dose every 30 minutes over the course of 90 minutes at doses of 90 μg+90 μg+180 μg+360 μg for a total dose of 720 μg (albuterol base) or 8 puffs.
Subjects entered a 7-day washout period (study days 9 through 15) and were then crossed over to the alternate treatment arm (placebo or tetomilast 50 mg oral dose). On study [0105] Day 23, the inhaled albuterol multiple dosing was repeated.
On Days 1-6 and 17-21, subjects were instructed to take their oral study medication (placebo or tetomilast 50 mg) QD with 8 ounces of water immediately before breakfast. Subjects assigned to the placebo arm received two placebo tablets QD. On Days 7, 8, 16, 22, and 23, subjects took their oral medication (placebo or tetomilast 50 mg) at the clinic in the presence of the study staff.
Combivent® inhalation aerosol use was allowed for short-acting rescue as needed throughout the study except on study days where PK samples were collected, on days when the multiple doses of inhaled albuterol were administered in the clinic, and/or on days when spirometry testing was performed. On all study days where PK samples were collected, Combivent® was withheld 6 hours prior to the PK draw. Additionally, on study Days 8 and 23 (when the multiple doses of inhaled albuterol were administered in the clinic), Combivent® was withheld 6 hours prior to PK assessment and throughout the duration of the clinic visit. Combivent® was withheld for six hours prior to spirometry testing. The recommended dose of Combivent® Inhalation Aerosol is two inhalations four times a day. In this study, subjects were permitted to take additional inhalations as required; however, the total number of inhalations was not to exceed 12 in 24 hours. Subjects were to “test-spray” three times before using for the first time and in cases where the aerosol had not been used for more than 24 hours. […]

CCOc1ccc(-c2nc(-c3cccc(C(=O)O)n3)cs2)cc1OCC [Tetomilast, 2-(3,4-diethoxyphenyl)-4-(2-carboxy-6-pyridyl)thiazole]
Estimated Treatment Effect, change from baseline in FEV1 (tetomilast versus placebo) (Day 8/23, 5 min postdose): 0.02 L
Estimated Treatment Effect, change from baseline in FVC (tetomilast versus placebo) (Day 8/23, 5 min postdose): 0.06 L
LS Mean change from baseline in FEV1 (repeated measures ANOVA) (Day 8/23, 5 min postdose): 0.19 L
LS Mean change from baseline in FVC (repeated measures ANOVA) (Day 8/23, 5 min postdose): 0.31 L
Mean (SD) change from baseline in FEV1 (Day 8/23, 5 min postdose): 0.19 (0.19) L
Mean (SD) change from baseline in FVC (Day 8/23, 5 min postdose): 0.30 (0.28) L
Estimated Treatment Effect, change from baseline in FEV1 (tetomilast versus placebo) (Day 8/23, 25 min postdose): 0.06 L
Estimated Treatment Effect, change from baseline in FVC (tetomilast versus placebo) (Day 8/23, 25 min postdose): 0.11 L
LS Mean change from baseline in FEV1 (repeated measures ANOVA) (Day 8/23, 25 min postdose): 0.21 L
LS Mean change from baseline in FVC (repeated measures ANOVA) (Day 8/23, 25 min postdose): 0.31 L
Mean (SD) change from baseline in FEV1 (Day 8/23, 25 min postdose): 0.21 (0.20) L
Mean (SD) change from baseline in FVC (Day 8/23, 25 min postdose): 0.31 (0.38) L
Estimated Treatment Effect, change from baseline in FEV1 (tetomilast versus placebo) (Day 8/23, 35 min postdose): 0.05 L
Estimated Treatment Effect, change from baseline in FVC (tetomilast versus placebo) (Day 8/23, 35 min postdose): 0.09 L
LS Mean change from baseline in FEV1 (repeated measures ANOVA) (Day 8/23, 35 min postdose): 0.26 L
LS Mean change from baseline in FVC (repeated measures ANOVA) (Day 8/23, 35 min postdose): 0.41 L
Mean (SD) change from baseline in FEV1 (Day 8/23, 35 min postdose): 0.26 (0.18) L
Mean (SD) change from baseline in FVC (Day 8/23, 35 min postdose): 0.41 (0.34) L
Estimated Treatment Effect, change from baseline in FEV1 (tetomilast versus placebo) (Day 8/23, 55 min postdose): 0.08 L
Estimated Treatment Effect, change from baseline in FVC (tetomilast versus placebo) (Day 8/23, 55 min postdose): 0.15 L
LS Mean change from baseline in FEV1 (repeated measures ANOVA) (Day 8/23, 55 min postdose): 0.28 L
LS Mean change from baseline in FVC (repeated measures ANOVA) (Day 8/23, 55 min postdose): 0.39 L
Mean (SD) change from baseline in FEV1 (Day 8/23, 55 min postdose): 0.28 (0.19) L
Mean (SD) change from baseline in FVC (Day 8/23, 55 min postdose): 0.38 (0.31) L
Estimated Treatment Effect, change from baseline in FEV1 (tetomilast versus placebo) (Day 8/23, 65 min postdose): 0.08 L
Estimated Treatment Effect, change from baseline in FVC (tetomilast versus placebo) (Day 8/23, 65 min postdose): 0.18 L
LS Mean change from baseline in FEV1 (repeated measures ANOVA) (Day 8/23, 65 min postdose): 0.32 L
LS Mean change from baseline in FVC (repeated measures ANOVA) (Day 8/23, 65 min postdose): 0.51 L
Mean (SD) change from baseline in FEV1 (Day 8/23, 65 min postdose): 0.32 (0.19) L
Mean (SD) change from baseline in FVC (Day 8/23, 65 min postdose): 0.52 (0.37) L
Estimated Treatment Effect, change from baseline in FEV1 (tetomilast versus placebo) (Day 8/23, 85 min postdose): 0.07 L
Estimated Treatment Effect, change from baseline in FVC (tetomilast versus placebo) (Day 8/23, 85 min postdose): 0.13 L
LS Mean change from baseline in FEV1 (repeated measures ANOVA) (Day 8/23, 85 min postdose): 0.33 L
LS Mean change from baseline in FVC (repeated measures ANOVA) (Day 8/23, 85 min postdose): 0.48 L
Mean (SD) change from baseline in FEV1 (Day 8/23, 85 min postdose): 0.33 (0.19) L
Mean (SD) change from baseline in FVC (Day 8/23, 85 min postdose): 0.47 (0.37) L
Estimated Treatment Effect, change from baseline in FEV1 (tetomilast versus placebo) (Day 8/23, 95 min postdose): 0.07 L
Estimated Treatment Effect, change from baseline in FVC (tetomilast versus placebo) (Day 8/23, 95 min postdose): 0.19 L
LS Mean change from baseline in FEV1 (repeated measures ANOVA) (Day 8/23, 95 min postdose): 0.36 L
LS Mean change from baseline in FVC (repeated measures ANOVA) (Day 8/23, 95 min postdose): 0.55 L
Mean (SD) change from baseline in FEV1 (Day 8/23, 95 min postdose): 0.36 (0.19) L
Mean (SD) change from baseline in FVC (Day 8/23, 95 min postdose): 0.55 (0.40) L
Estimated Treatment Effect, change from baseline in FEV1 (tetomilast versus placebo) (Day 8/23, 115 min postdose): 0.07 L
Estimated Treatment Effect, change from baseline in FVC (tetomilast versus placebo) (Day 8/23, 115 min postdose): 0.18 L
LS Mean change from baseline in FEV1 (repeated measures ANOVA) (Day 8/23, 115 min postdose): 0.35 L
LS Mean change from baseline in FVC (repeated measures ANOVA) (Day 8/23, 115 min postdose): 0.54 L
Mean (SD) change from baseline in FEV1 (Day 8/23, 115 min postdose): 0.35 (0.18) L
Mean (SD) change from baseline in FVC (Day 8/23, 115 min postdose): 0.53 (0.44) L
Estimated Treatment Effect, change from baseline in FEV1 (tetomilast versus placebo) (Day 8/23, 175 min postdose): 0.09 L
Estimated Treatment Effect, change from baseline in FVC (tetomilast versus placebo) (Day 8/23, 175 min postdose): 0.15 L
LS Mean change from baseline in FEV1 (repeated measures ANOVA) (Day 8/23, 175 min postdose): 0.36 L
LS Mean change from baseline in FVC (repeated measures ANOVA) (Day 8/23, 175 min postdose): 0.53 L
Mean (SD) change from baseline in FEV1 (Day 8/23, 175 min postdose): 0.36 (0.21) L
Mean (SD) change from baseline in FVC (Day 8/23, 175 min postdose): 0.52 (0.36) L
Estimated Treatment Effect, change from baseline in FEV1 (tetomilast versus placebo) (Day 8/23, 235 min postdose): 0.07 L
Estimated Treatment Effect, change from baseline in FVC (tetomilast versus placebo) (Day 8/23, 235 min postdose): 0.09 L
LS Mean change from baseline in FEV1 (repeated measures ANOVA) (Day 8/23, 235 min postdose): 0.34 L
LS Mean change from baseline in FVC (repeated measures ANOVA) (Day 8/23, 235 min postdose): 0.42 L
Mean (SD) change from baseline in FEV1 (Day 8/23, 235 min postdose): 0.34 (0.25) L
Mean (SD) change from baseline in FVC (Day 8/23, 235 min postdose): 0.42 (0.48) L
Estimated Treatment Effect, change from baseline in FEV1 (tetomilast versus placebo) (Day 8/23, 295 min postdose): 0.05 L
Estimated Treatment Effect, change from baseline in FVC (tetomilast versus placebo) (Day 8/23, 295 min postdose): 0.19 L
LS Mean change from baseline in FEV1 (repeated measures ANOVA) (Day 8/23, 295 min postdose): 0.25 L
LS Mean change from baseline in FVC (repeated measures ANOVA) (Day 8/23, 295 min postdose): 0.38 L
Mean (SD) change from baseline in FEV1 (Day 8/23, 295 min postdose): 0.25 (0.29) L
Mean (SD) change from baseline in FVC (Day 8/23, 295 min postdose): 0.37 (0.49) L
Estimated Treatment Effect, change from baseline in FEV1 (tetomilast versus placebo) (Day 8/23, 355 min postdose): 0.13 L
Estimated Treatment Effect, change from baseline in FVC (tetomilast versus placebo) (Day 8/23, 355 min postdose): 0.24 L
LS Mean change from baseline in FEV1 (repeated measures ANOVA) (Day 8/23, 355 min postdose): 0.25 L
LS Mean change from baseline in FVC (repeated measures ANOVA) (Day 8/23, 355 min postdose): 0.34 L
Mean (SD) change from baseline in FEV1 (Day 8/23, 355 min postdose): 0.25 (0.24) L
Mean (SD) change from baseline in FVC (Day 8/23, 355 min postdose): 0.34 (0.39) L
effect on inhaled albuterol response (FEV1, FVC), exploratory repeated measures analysis (inhaled albuterol combined with tetomilast versus inhaled albuterol alone, Day 8/23): possible potentiation of the effect of inhaled albuterol
FEV1 steady-state (predose) baseline value, Mean (SD) (predose Day 8/23, on tetomilast 50 mg QD, prior to inhaled albuterol): 1.40 (0.61) L
